# Where “and” joins values, the source holds several entries; their conditions need not be identical. Identical values can stand only once.
# Experiments:
# ABCA1 protein = assay: Cell fractionation: ABCA1 in plasma membrane and microsomal fractions of podocytes; assay type: cell-based, human; settings: podocytes; Cpd A 5 µM, Cpd G 10 µM
# Experimental: Lysates, or cell fractions were incubated in Laemmli buffer at 55 °C for 10 min under reducing conditions. A total of 30 μg of protein from cell lysates or one-third of the volume collected in cell fraction preparations was separated by SDS-PAGE in 4–20% gradient gels (Biorad) and proteins were then transferred to PVDF membranes. After blocking with 5% TBS-milk, membranes were probed with primary antibodies overnight at 4 °C. The following primary antibodies were used: mouse anti-ABCA1 (Abcam; 1:1000), rabbit anti-GAPDH antibody (Millipore; 1:10,000), mouse anti-actin (CP01, Millipore 1:10,000), anti-MEK, anti-ERp72, anti-V5 and anti-Na^+/K^+ ATPase (Cell Signaling; all 1:1000), and rabbit anti-OSBPL7 (Sigma; 1:1000). After washing, membranes were incubated with anti-rabbit or and anti-mouse IgG-HRP antibodies (Promega, 1:10,000). Signals were detected after incubation with Westernbright ECL HRP substrate (Advansta) and luminescence signals were captured with Azure C600 Gel Imaging workstation (Azure Biosystems Inc, USA) or X-ray films.
# Differentiated podocytes were treated with compounds Cpd C (1 μM), Cpd A (5 μM), or Cpd G (10 μM) for 18 h, washed and then harvested in ice-cold PBS. Cells were centrifuged at 1000 × g for 5 min, the supernatant was carefully removed, and the pellet resuspended in hypotonic buffer (15 mM KCl, 1.5 mM MgCl2, 10 mM HEPES and 1 mM DTT) supplemented with a protease inhibitor cocktail (Roche). Cells were disrupted with a glass douncer, and sucrose was added to achieve final concentration of 227 mM. Cell lysates were centrifuged at 1000 × g for 30 min at 4 °C. The supernatant was then transferred to a new tube and centrifuged at 10,000 × g for 15 min at 4 °C. The pellet, containing the microsomal fraction was collected and the supernatant was transferred to a new tube and centrifuged at 100,000 × g for 1 h at 4 °C. The pelleted plasma membrane fraction was collected and the supernatant, containing the organelle-free cytosolic fraction, was concentrated in Vivaspin 500 filter columns. Western blot was performed using antibodies for ABCA1 and specific markers for each membrane fraction as described above. Na^+/K^+ ATPase was used to identify the plasma membrane fraction, ERp72 as a marker for the microsomal-enriched fraction, and MEK as the control for the non-membranous cytosolic fraction.
# [1] = system: Adriamycin (ADR)-induced nephropathy in Balb/c mice; assay: ADR nephropathy: kidney cortex lipids (cholesterol ester, total cholesterol, triglycerides, Oil-red O); assay type: in vivo, mouse
# Experimental: OCT embedded kidney cortex samples were cryosectioned at 4 μm thickness and stained with Oil-Red O-isopropanol solution (Electron Microscopy Science, PA) diluted 6:4 in water, and then counterstained with Hematoxylin Harris Hg Free (VWR, PA). Sections were then evaluated using a light microscope (Olympus BX 41, Tokyo, Japan).
# Snap frozen kidney cortex samples were homogenized in 2 mM potassium phosphate buffer, pH 7, (10 µl buffer/mg tissue) using a glass douncer on ice. 100 μl of the homogenate were mixed thoroughly with 1 ml of hexane:isopropanol (3:2;v:v) per volume of tissue homogenate. The aqueous (pellet) and organic (supernatant) phases were separated by centrifugation at 12,000 × g for 5 min. Pellets (aqueous phase) were dried, reconstituted in 8 M urea, 0.1% SDS, 0.1 M NaOH, and total proteins were quantified by the BCA method (Thermofisher). The organic phase was dried by exposure to nitrogen. Lipids were then reconstituted in 100 µl isopropanol:NP-40 (9:1;v:v). Triglyceride content was assayed using a colorimetric kit according to the manufacturer’s instructions (Cayman Chemical USA). Total cholesterol and CE content were assayed using an enzymatic fluorometric method. For total cholesterol measurement, extracts were diluted 1:100 in assay buffer (100 mM potassium phosphate, 50 mM NaCl, 5 mM cholic acid, 0.1% Triton […], pH 7.4) containing cholesterol oxidase (1 U/ml), cholesterol esterase (1 U/ml), horseradish peroxidase (1 U/ml), and Amplex Red (75 µM). The reactions were incubated at 37 °C for 30 min in a black opaque 96-well plate (Greiner) and fluorescence was measured in a microplate reader (Spectramax i3X, Molecular Devices) at 530 nm excitation and 580 emission.
# For CE determination, 150 µl of the assay buffer described above, supplemented with bovine liver catalase (45 U/ml) and cholesterol oxidase (1 U/ml), was added to 25 μl of sample and incubated overnight at 37 °C to deplete free cholesterol leaving only cholesterol esters. Then, 75 µl of cholesterol ester detection reagent (1 U/ml cholesterol oxidase, 4 U/ml cholesterol esterase, 24 U/ml horseradish peroxidase, 300 µM Amplex Red) was added. The reaction was incubated at 37 °C for 30 min and the fluorescence signal was measured as described above. Internal standards included samples containing 1 mM of cholesterol and 5 μM of cholesterol oleate in order to verify the completeness of the enzymatic decomposition of free cholesterol as well as assay sensitivity and specificity.
# [2] = system: Adriamycin (ADR)-induced nephropathy in Balb/c mice; assay: ADR nephropathy: liver total cholesterol, cholesterol esters, triglycerides; assay type: in vivo, mouse; settings: ADR model; individual animals
# [3] = system: Adriamycin (ADR)-induced nephropathy in Balb/c mice; assay: ADR nephropathy: WBC, hemoglobin, hematocrit, ALT, AST; assay type: in vivo, mouse
# [4] = ADR-induced nephropathy, 28 days treatment, 25th quartile
# [5] = ADR-induced nephropathy, 28 days treatment, 75th quartile
# [6] = ADR-induced nephropathy, 28 days treatment, group maximum
# [7] = ADR-induced nephropathy, 28 days treatment, group median
# [8] = ADR-induced nephropathy, 28 days treatment, group minimum
# [9] = ADR-induced nephropathy, 28 days treatment, individual mouse values
structure (smiles),measurement,setting,value
O=C(N[C@@H]1CCCC[C@H]1O)c1cnc(OCC(F)(F)F)c(-c2ccc(Cl)c(Cl)c2)c1 [Cpd G],ABCA1 at the plasma membrane,ABCA1 protein,increased ABCA1 at the plasma membrane
same,ABCA1 in microsomal fractions,ABCA1 protein,did not increase ABCA1 in microsomal fractions
same,KIDNEY CORTEX TOTAL CHOLESTEROL,"[1]; ADR model, individual animals",79.82 nmol Chol./mg protein and 76.54 nmol Chol./mg protein and 118.96 nmol Chol./mg protein and 209.77 nmol Chol./mg protein and 137.06 nmol Chol./mg protein and 201.43 nmol Chol./mg protein and 118.77 nmol Chol./mg protein and 118.29 nmol Chol./mg protein and 88.73 nmol Chol./mg protein and 117.18 nmol Chol./mg protein
same,KIDNEY CORTEX TRIGLYCERIDES,"[1]; ADR model, individual animals",45.04 nmol Triglyceride /mg protein and 65 nmol Triglyceride /mg protein and 36.98 nmol Triglyceride /mg protein and 31.32 nmol Triglyceride /mg protein and 30.95 nmol Triglyceride /mg protein and 56.24 nmol Triglyceride /mg protein and 28.95 nmol Triglyceride /mg protein and 62.65 nmol Triglyceride /mg protein and 57.76 nmol Triglyceride /mg protein
same,Cholesterol ester content in kidneys from individual animals,"[1]; ADR, day 28 of treatment, paired with ACR of same animal",0.13 nmol CE/mg and 0.19 nmol CE/mg and 0.14 nmol CE/mg and 0.15 nmol CE/mg and 0.03 nmol CE/mg and 0.01 nmol CE/mg and 0.17 nmol CE/mg
same,"Cholesterol esters in renal cortex, ADR model",[1]; Cpd G 28 days after ADR,reduced accumulation of cholesterol esters
same,"Renal CE content, Median","[1]; mice challenged with ADR, treated for 28 days, group median",0.975 nmol CE/ mg protein
same,"Renal CE content (cholesterol ester, normalized to total proteins in kidney cortexes)","[1]; mice challenged with ADR, treated for 28 days, individual animals",0.88 nmol CE/ mg protein and 1.16 nmol CE/ mg protein and 1.07 nmol CE/ mg protein and 1.59 nmol CE/ mg protein and 0.87 nmol CE/ mg protein and 0.53 nmol CE/ mg protein and 0.78 nmol CE/ mg protein and 0.58 nmol CE/ mg protein and 1.14 nmol CE/ mg protein and 1.47 nmol CE/ mg protein
same,LIVER CHOLESTEROL ESTERS,[2],2.88 nmol CE/ mg protein and 6.03 nmol CE/ mg protein and 6.11 nmol CE/ mg protein and 1.54 nmol CE/ mg protein and 4.33 nmol CE/ mg protein and 2.97 nmol CE/ mg protein and 3.06 nmol CE/ mg protein
same,LIVER TOTAL CHOLESTEROL,[2],118 nmol Cholesterol/ mg protein and 122 nmol Cholesterol/ mg protein and 97.7 nmol Cholesterol/ mg protein and 114 nmol Cholesterol/ mg protein and 146 nmol Cholesterol/ mg protein
same,LIVER TRIGLICERIDES,[2],35 nmol Triglycerides/ mg protein and 30 nmol Triglycerides/ mg protein and 48.4 nmol Triglycerides/ mg protein and 51 nmol Triglycerides/ mg protein and 39 nmol Triglycerides/ mg protein
same,ADR-induced increase of ALT and AST,[3]; 28 days,partially attenuated
same,"ALT, Median (IQR)",[3]; ADR-induced nephropathy,213 (105-239) U/L
same,"ALT, Range",[3]; ADR-induced nephropathy,90-317 U/L
same,"AST, Median (IQR)",[3]; ADR-induced nephropathy,213 (156-220) U/L
same,"AST, Range",[3]; ADR-induced nephropathy,124-401 U/L
same,"HTC, Median (IQR)",[3]; ADR-induced nephropathy,51 (48-52) %
same,"HTC, Range",[3]; ADR-induced nephropathy,46-57%
same,"Hgb, Median (IQR)",[3]; ADR-induced nephropathy,13 g/dL
same,"Hgb, Range",[3]; ADR-induced nephropathy,12.2 to 13.7 g/dL
same,"WBC, Median (IQR)",[3]; ADR-induced nephropathy,5.2 (3.4-6.5) x103cells/µL
same,"WBC, Range",[3]; ADR-induced nephropathy,2.5-6.5 x103cells/µL
same,"HTC, QR(25)",[3]; [4],49.25%
same,"Hgb, QR(25)",[3]; [4],12.6 g/dL
same,"WBC, QR(25)",[3]; [4],3.85 x 10^3 cells/ul
same,"HTC, QR(75)",[3]; [5],51.75%
same,"Hgb, QR(75)",[3]; [5],13.4 g/dL
same,"WBC, QR(75)",[3]; [5],6.425 x 10^3 cells/ul
same,"HTC, Max",[3]; [6],57%
same,"Hgb, Max",[3]; [6],13.7 g/dL
same,"WBC, Max",[3]; [6],9.8 x 10^3 cells/ul
same,"HTC, Median",[3]; [7],51%
same,"Hgb, Median",[3]; [7],13.1 g/dL
same,"WBC, Median",[3]; [7],5.45 x 10^3 cells/ul
same,"HTC, Min",[3]; [8],46%
same,"Hgb, Min",[3]; [8],12.2 g/dL
same,"WBC, Min",[3]; [8],2.5 x 10^3 cells/ul
same,Alanine Aminotransferase (ALT),[3]; [9],220 U/dL and 105 U/dL and 213 U/dL and 156 U/dL and 239 U/dL and 317 U/dL and 90 U/dL
same,Aspartate Aminotransferase (AST),[3]; [9],217 U/dL and 156 U/dL and 401 U/dL and 213 U/dL and 220 U/dL and 124 U/dL
same,Hematocrit HTC,[3]; [9],57% and 51% and 54% and 47% and 46% and 49% and 52% and 50%
same,White Blood Cells WBC,[3]; [9],9.8 x 10^3 cells/ul and 5.5 x 10^3 cells/ul and 6.2 x 10^3 cells/ul and 2.5 x 10^3 cells/ul and 5.2 x 10^3 cells/ul and 6.5 x 10^3 cells/ul and 3.4 x 10^3 cells/ul and 5.4 x 10^3 cells/ul and 8.9 x 10^3 cells/ul

# Reference: paper PMC8329197, “Compounds targeting OSBPL7 increase ABCA1-dependent cholesterol efflux preserving kidney function in two models of kidney disease” (Nature Communications, 2021)
